SMILES strings stand for the structures.

What all share (format): binding
Assay [1] can be described thus: 19F NMR association constants of β-CD:legacy PFAS complexes. Particulars: for K1:1 association constant: 1:1 β-CD:PFAS complex; for K1:1 association constant / K2:1 association constant: aqueous media, room temperature; for K2:1 association constant: 2:1 β-CD:PFAS complex; for Legacy PFAS Kassoc (1:1): 1:1 (unmarked value taken as 1:1). The method, then: A detailed comprehensive Nuclear Magnetic Resonance (NMR) spectral study of the complexation of PFASs to β-CD was conducted, Weiss-Errico and O'Shea, J. Hazardous Mat. 2017 329, 57-65, with highlights herein. […] Competition studies with adamantane-carboxylic acid and phenol confirmed the persistence of the β-CD:PFAS complex. The aqueous solution pH, ionic strength, and the presence of humic acid have only a modest influence on the β-CD:PFAS complexes. Table 2 gives the association constants for β-CD complexes with a sample of the PFASs studied, including perfluoroheptanoic acid (PFHpA), perfluorooctanoic acid (PFOA), perfluorononanoic acid (PFNA), perfluorooctane sulfonate (PFOS), and perfluorooctanesulfonamide (PFOSA).

Assay [2] can be described thus: 19F NMR titration, average association constants of PFECAs with β-CD. Particulars: for association constant with β-CD: 1:1 β-CD:PFECA; for Average association constant with β-CD (1:1): 1:1 β-CD:PFECA (unmarked values are 1:1); for Average association constant with β-CD (1:1) / Average association constant with β-CD (2:1): pH 7; for Decrease (1:1): decrease of 1:1 β-CD association constant versus legacy PFAS of the same chain length; for Emerging PFAS Kassoc (1:1): 1:1 (unmarked values taken as 1:1); for Average association constant with β-CD (2:1): 2:1 β-CD:PFECA. How it is done:
(§1) ^19F NMR spectroscopy was performed with a 400 MHz Bruker instrument with a quad probe (operating at 376.498 MHz for 19F). Hexafluorobenzene was used as the internal standard with a chemical shift of −164.9 ppm. For the titration experiments, the chemical shift of each peak was recorded, and the 1:1 and 2:1 association constants were calculated in GraphPad Prism and Mathworks Matlab by Ramos Cabrer et al.'s, Langmuir 1999, 15, 5489-5495 method.
(§2) The ^19F NMR spectrum of each PFECA was monitored as a function of CD concentration. The individual CD:PFECA association constants were determined via nonlinear least-squares regression analysis of the change in observed chemical shift. The association constants determined for individual fluorines were then averaged to find the average association constant for each PFECA with each CD.

Assay [3] is described as follows: 19F NMR titration, average association constants of PFECAs with α-CD. More on the design: key: *: no significant association. To be noted: 50% D2O/50% H2O, pH 7; averaged over individual fluorines. The method, then: as §1, §2
Assay [4] in a line: 19F NMR titration, average association constants of PFECAs with γ-CD. The arrangement: key: *: no significant association. To be noted: 50% D2O/50% H2O, pH 7; averaged over individual fluorines. How it is done: as §1, §2
Where [5] appears, read: estimated based on association constants from PFOA and PFNA.

Regarding `O=C(O)C(F)(F)C(F)(F)C(F)(F)C(F)(F)C(F)(F)C(F)(F)C(F)(F)C(F)(F)C(F)(F)F` [PFDA, perfluorodecanoic acid], in assay [1] (setting [5]), the “Legacy PFAS Kassoc (1:1), estimated” value is ~10^5 (1:1) M^−1 and the “Legacy PFAS Kassoc (2:1), estimated” value was ~10^3 (2:1) M^−1.
Turning to `O=C(O)C(F)(F)C(F)(F)C(F)(F)OC(F)(C(F)(F)F)C(F)(F)F` [PFDMMOBA, perfluoro(5-oxa-6-dimethylhexanoic) acid], in assay [2], the “association constant with β-CD” value came out at 26600 M⁻¹, the “Average association constant with β-CD (1:1)” value was 2.66 +/− 0.61 × 10^4 M^−1 and the “Decrease (1:1)” value is given as around 10. Moreover, the “stronger complexation with β-CD than PFPrOPrA” value in assay [2] (ratio of β-CD association constants, PFDMMOBA versus PFPrOPrA) was around 40 ×. For the same molecule, the “Emerging PFAS Kassoc (1:1)” value in assay [2] (β-CD:PFECA) is reported as 2.66 +/− 0.61 × 10^4 M^−1. Further, the “Average association constant with α-CD” value in assay [3] is “*”. Also, the “Average association constant with γ-CD” value in assay [4] is given as 6.85 +/− 1.82 × 10^2 M^−1.
`O=C(O)C(F)(F)C(F)(F)C(F)(F)C(F)(F)C(F)(F)C(F)(F)F` [PFHpA, perfluoroheptanoic acid]: in assay [1], the “K1:1 association constant” value is 4.30 ± 0.85 × 10^5 M^−1 and the “K2:1 association constant” value is 2.30 ± 0.27 × 10^3 M^−1. In addition, the “Legacy PFAS Kassoc (1:1)” value in assay [1] (β-CD:legacy PFAS) is on record as 4.30 +/− 0.85 x 10^5 (1:1) M^−1. Further, the “Legacy PFAS Kassoc (2:1)” value in assay [1] (β-CD:legacy PFAS, 2:1) was 2.30 +/− 0.27 × 10^3 (2:1) M^−1.
`O=C(O)C(F)(F)C(F)(F)OC(F)(F)F` [PFMOBA, perfluoro(4-oxapentanoic) acid]: in assay [2], the “association constant with β-CD” value is 1480 M⁻¹, the “Average association constant with β-CD (1:1)” value is 1.48 +/− 0.36 × 10^3 M^−1 and the “Decrease (1:1)” value was around 10. Besides, the “Emerging PFAS Kassoc (1:1)” value in assay [2] (β-CD:PFECA) is 1.48 +/− 0.36 × 10^3 M^−1. The “Average association constant with α-CD” value in assay [3] was 3.37 +/− 1.40 × 10^1 M^−1. In addition, the “Average association constant with γ-CD” value in assay [4] is reported as “*”.
As to `O=C(O)C(F)(F)OC(F)(F)F` [PFMOPrA, Perfluoro(3-oxabutanoic) acid], in assay [2], the “Average association constant with β-CD (1:1)” value is 1.54 +/− 0.52 × 10^2 M^−1 and the “Decrease (1:1)” value was below 10. Also, in assay [2] (β-CD:PFECA), the “Emerging PFAS Kassoc (1:1)” value is 1.54 +/− 0.52 × 10^2 M^−1. Further, the “Average association constant with α-CD” value in assay [3] is 2.60 +/− 1.14 × 10^1 M^−1. Moreover, the “Average association constant with γ-CD” value in assay [4] is “*”.
On to `O=C(O)C(F)(F)C(F)(F)C(F)(F)C(F)(F)C(F)(F)C(F)(F)C(F)(F)C(F)(F)F` [PFNA, perfluorononanoic acid], for which, in assay [1], the “K1:1 association constant” value was 3.37 ± 0.35 × 10^5 M^−1 and the “K2:1 association constant” value is 7.80 ± 0.66 × 10^3 M^−1.
In the case of `O=C(O)C(F)(F)OC(F)(F)C(F)(F)OC(F)(F)C(F)(F)C(F)(F)C(F)(F)F` [PFO2DA, perfluoro(3,6-dioxadecanoic) acid], in assay [2], the “Average association constant with β-CD (1:1)” value is listed as 1.38 +/− 0.40 × 10^4 M^−1, the “Average association constant with β-CD (2:1)” value was 7.72 +/− 2.43 × 10^3 M^−1 and the “Decrease (1:1)” value is given as around 10. Besides, the “Emerging PFAS Kassoc (1:1)” value in assay [2] (β-CD:PFECA) was 1.38 +/− 0.40 × 10^4 (1:1) M^−1. Besides, the “Average association constant with α-CD” value in assay [3] is listed as “*”. In assay [4], the “Average association constant with γ-CD” value is 1.39 +/− 0.38 × 10^3 M^−1.
Consider `O=C(O)C(F)(F)OC(F)(F)C(F)(F)OC(F)(F)F` [PFO2HpA, perfluoro(3,6-dioxheptanoic) acid], for which, in assay [2], the “Average association constant with β-CD (1:1)” value is reported as 4.74 +/− 2.04 × 10^2 M^−1, the “Average association constant with β-CD (2:1)” value is 3.87 +/− 1.40 × 10^2 M^−1 and the “Decrease (1:1)” value was around 1000. For the same molecule, in assay [2] (β-CD:PFECA), the “Emerging PFAS Kassoc (1:1)” value is 4.74 +/− 2.04 × 10^2 (1:1) M^−1. Besides, in assay [2] (β-CD:PFECA, 2:1), the “Emerging PFAS Kassoc (2:1)” value is recorded as 3.87 +/− 1.40 × 10^2 (2:1) M^−1. The “Average association constant with α-CD” value in assay [3] is 5.34 +/− 0.48 × 10^1 M^−1. The “Average association constant with γ-CD” value in assay [4] is on record as 8.43 +/− 3.24 × 10^1 M^−1.
For `O=C(O)C(F)(F)OC(F)(F)C(F)(F)OC(F)(F)C(F)(F)OC(F)(F)F` [PFO3DA, perfluoro(3,6,9-trioxadecanoic) acid], in assay [2], the “Average association constant with β-CD (1:1)” value is 3.03 +/− 1.09 × 10^3 M^−1, the “Average association constant with β-CD (2:1)” value is reported as 4.12 +/− 1.08 × 10^3 M^−1 and the “Decrease (1:1)” value was around 100. In assay [2] (β-CD:PFECA), the “Emerging PFAS Kassoc (1:1)” value is 3.03 +/− 1.09 × 10^3 (1:1) M^−1. In addition, the “Average association constant with α-CD” value in assay [3] was 9.28 +/− 2.80 × 10^1 M^−1. The “Average association constant with γ-CD” value in assay [4] is 7.60 +/− 2.10 × 10^2 M^−1.
`O=C(O)C(F)(F)OC(F)(F)C(F)(F)OC(F)(F)C(F)(F)OC(F)(F)C(F)(F)C(F)(F)C(F)(F)F` [PFO3TDA, perfluoro-(3,6,9-trioxatridecanoic) acid]: in assay [2], the “Average association constant with β-CD (1:1)” value is 5.93 +/− 1.20 × 10^5 M^−1 and the “Average association constant with β-CD (2:1)” value is 1.36 +/− 0.28 × 10^5 M^−1. The “Average association constant with α-CD” value in assay [3] is recorded as “*”. Also, the “Average association constant with γ-CD” value in assay [4] was 3.48 +/− 1.50 × 10^3 M^−1.
Take `O=S(=O)(O)C(F)(F)C(F)(F)C(F)(F)C(F)(F)C(F)(F)C(F)(F)C(F)(F)C(F)(F)F` [PFOS, perfluorooctane sulfonate]: in assay [1], the “K1:1 association constant” value is listed as 6.96 ± 0.79 × 10^5 M^−1 and the “K2:1 association constant” value is 5.95 ± 1.70 × 10^4 M^−1.
With `NS(=O)(=O)C(F)(F)C(F)(F)C(F)(F)C(F)(F)C(F)(F)C(F)(F)C(F)(F)C(F)(F)F` [PFOSA, perfluorooctanesulfonamide], in assay [1], the “K1:1 association constant” value is reported as 1.02 ± 0.16 × 10^5 M^−1 and the “K2:1 association constant” value is recorded as 2.70 ± 0.57 × 10^4 M^−1.
With `O=C(O)C(F)(F)C(F)(F)C(F)(F)C(F)(F)F` [PFPA, perfluoropentanoic acid], in assay [1] (β-CD:legacy PFAS), the “Legacy PFAS Kassoc (1:1)” value is on record as 7.60 +/− 0.44 × 10^2 M^−1.
Turning to `O=C(O)C(F)(OC(F)(F)C(F)(F)C(F)(F)F)C(F)(F)F` (stereo not drawn) [PFPrOPrA, Perfluoro(2-methyl-3-oxahexanoic) acid], in assay [2], the “association constant with β-CD” value was 745 M⁻¹, the “Average association constant with β-CD (1:1)” value is listed as 7.45 +/− 4.27 × 10^2 M^−1 and the “Decrease (1:1)” value is on record as around 100. In assay [2] (β-CD:PFECA), the “Emerging PFAS Kassoc (1:1)” value is reported as 7.45 +/− 4.27 × 10^2 M^−1. For the same molecule, in assay [3], the “Average association constant with α-CD” value is 2.36 +/− 1.10 × 10^2 M^−1. The “Average association constant with γ-CD” value in assay [4] is “*”.

The values above are taken from patent US11149135B2, “Application of cyclodextrins (CDS) for remediation of perfluoroalkyl substances (PFASS)” (THE FLORIDA INTERNATIONAL UNIVERSITY BOARD OF TRUSTEES, priority 2017, dated 2021).
